# Experiments:
# Experiment in all cases: relative viability (nuclei count vs DMSO), 5 days (fraction); higher = more cells survive
# [1] = tested on: NCI-H1944
# Outline: (§1)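 A single step with final 0.05% Triton X-100, 1% formaldehyde and 1 ug/ml Hoechst fixed the cells and stained nuclei 5 days after treatment. Lung cancer cell lines in 1536-well plates had been treated by pin tool the day after seeding with one drug alone or a fixed anchor-drug dose plus five library-drug doses (not always all listed) in √10 steps, and nuclei were counted on 4× images. Relative viability is the ratio of nuclei in treated wells to nuclei in vehicle wells, taken as the median of duplicate plates.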
# [2] = tested on: NCI-H596
# Outline: as §1
# [3] = tested on: NCI-H650
# Outline: as §1
# [4] = tested on: NCI-H1666
# Outline: as §1
# [5] = tested on: SK-MES-1
# Outline: as §1
# [6] = tested on: LK-2
# Outline: as §1
# [7] = tested on: HCC-78
# Outline: as §1
# [8] = tested on: NCI-H838
# Outline: as §1
# [9] = tested on: NCI-H1355
# Outline: as §1
# [10] = tested on: NCI-H1975
# Outline: as §1
# [11] = tested on: LU99A
# Outline: as §1
# [12] = tested on: NCI-H358
# Outline: as §1
# [13] = tested on: LXF-289
# Outline: as §1
# [14] = tested on: PC-3 [JPC-3]
# Outline: as §1
# [15] = tested on: BEN
# Outline: as §1
# [16] = tested on: LCLC-97TM1
# Outline: as §1
# [17] = tested on: NCI-H1651
# Outline: as §1
# [18] = tested on: LC-2-ad
# Outline: as §1
# [19] = tested on: NCI-H2087
# Outline: as §1
# [20] = tested on: NCI-H661
# Outline: as §1
smiles,measurement,setting,value
CCN(CC)CCCCNc1ncc2cc(-c3cc(OC)cc(OC)c3)c(NC(=O)NC(C)(C)C)nc2n1 + C[C@]1(O)C[C@@H](c2nc(-c3ccc4ccc(-c5ccccc5)nc4c3)c3c(N)nccn32)C1 [Linsitinib] (partner 1 µM),relative viability,[1]; first compound 0.01 µM,1.27
same,relative viability,[1]; first compound 0.03162 µM,1.08
same,relative viability,[1]; first compound 0.1 µM,1.2
same,relative viability,[1]; first compound 0.3162 µM,1.3
same,relative viability,[1]; first compound 1 µM,1.12
same,relative viability,[2]; first compound 0.01 µM,1.1
same,relative viability,[2]; first compound 0.03162 µM,1.05
same,relative viability,[2]; first compound 0.1 µM,1.05
same,relative viability,[2]; first compound 0.3162 µM,1.07
same,relative viability,[2]; first compound 1 µM,0.814
same,relative viability,[3]; first compound 0.01 µM,0.792
same,relative viability,[3]; first compound 0.03162 µM,0.929
same,relative viability,[3]; first compound 0.1 µM,0.97
same,relative viability,[3]; first compound 0.3162 µM,1.1
same,relative viability,[3]; first compound 1 µM,0.789
same,relative viability,[4]; first compound 0.01 µM,1.04
same,relative viability,[4]; first compound 0.03162 µM,0.674
same,relative viability,[4]; first compound 0.1 µM,0.997
same,relative viability,[4]; first compound 0.3162 µM,0.944
same,relative viability,[4]; first compound 1 µM,0.726
same,relative viability,[5]; first compound 0.01 µM,1.04
same,relative viability,[5]; first compound 0.03162 µM,1.26
same,relative viability,[5]; first compound 0.1 µM,1.16
same,relative viability,[5]; first compound 0.3162 µM,1.16
same,relative viability,[5]; first compound 1 µM,1.09
same,relative viability,[6]; first compound 0.01 µM,0.536
same,relative viability,[6]; first compound 0.03162 µM,0.339
same,relative viability,[6]; first compound 0.1 µM,0.401
same,relative viability,[6]; first compound 0.3162 µM,0.356
same,relative viability,[6]; first compound 1 µM,0.17
same,relative viability,[7]; first compound 0.03162 µM,0.55
same,relative viability,[7]; first compound 0.1 µM,0.497
same,relative viability,[7]; first compound 0.3162 µM,0.593
same,relative viability,[7]; first compound 1 µM,0.415
same,relative viability,[8]; first compound 0.01 µM,1.13
same,relative viability,[8]; first compound 0.03162 µM,1
same,relative viability,[8]; first compound 0.1 µM,1.05
same,relative viability,[8]; first compound 0.3162 µM,1.01
same,relative viability,[8]; first compound 1 µM,0.603
same,relative viability,[9]; first compound 0.01 µM,0.861
same,relative viability,[9]; first compound 0.03162 µM,0.887
same,relative viability,[9]; first compound 0.1 µM,0.873
same,relative viability,[9]; first compound 0.3162 µM,0.898
same,relative viability,[9]; first compound 1 µM,0.794
same,relative viability,[10]; first compound 0.01 µM,0.976
same,relative viability,[10]; first compound 0.03162 µM,0.949
same,relative viability,[10]; first compound 0.1 µM,1.11
same,relative viability,[10]; first compound 0.3162 µM,1.01
same,relative viability,[10]; first compound 1 µM,0.856
same,relative viability,[11]; first compound 0.01 µM,0.557
same,relative viability,[11]; first compound 0.03162 µM,0.565
same,relative viability,[11]; first compound 0.1 µM,0.565
same,relative viability,[11]; first compound 0.3162 µM,0.583
same,relative viability,[11]; first compound 1 µM,0.517
same,relative viability,[12]; first compound 0.01 µM,0.731
same,relative viability,[12]; first compound 0.03162 µM,0.748
same,relative viability,[12]; first compound 0.1 µM,0.767
same,relative viability,[12]; first compound 0.3162 µM,0.859
same,relative viability,[12]; first compound 1 µM,0.695
same,relative viability,[13]; first compound 0.01 µM,0.974
same,relative viability,[13]; first compound 0.03162 µM,1.02
same,relative viability,[13]; first compound 0.1 µM,1.03
same,relative viability,[13]; first compound 0.3162 µM,0.972
same,relative viability,[13]; first compound 1 µM,0.843
same,relative viability,[14]; first compound 0.01 µM,0.999
same,relative viability,[14]; first compound 0.03162 µM,0.982
same,relative viability,[14]; first compound 0.1 µM,0.954
same,relative viability,[14]; first compound 0.3162 µM,1.03
same,relative viability,[14]; first compound 1 µM,0.993
same,relative viability,[15]; first compound 0.01 µM,1.11
same,relative viability,[15]; first compound 0.03162 µM,0.838
same,relative viability,[15]; first compound 0.1 µM,0.894
same,relative viability,[15]; first compound 0.3162 µM,1.07
same,relative viability,[15]; first compound 1 µM,0.691
same,relative viability,[16]; first compound 0.03162 µM,0.176
same,relative viability,[16]; first compound 0.1 µM,0.23
same,relative viability,[16]; first compound 0.3162 µM,0.199
same,relative viability,[16]; first compound 1 µM,0.216
same,relative viability,[17]; first compound 0.01 µM,1.06
same,relative viability,[17]; first compound 0.03162 µM,0.931
same,relative viability,[17]; first compound 0.1 µM,1.28
same,relative viability,[17]; first compound 0.3162 µM,1.16
same,relative viability,[17]; first compound 1 µM,0.786
same,relative viability,[18]; first compound 0.01 µM,0.803
same,relative viability,[18]; first compound 0.03162 µM,0.913
same,relative viability,[18]; first compound 0.1 µM,0.958
same,relative viability,[18]; first compound 0.3162 µM,0.876
same,relative viability,[18]; first compound 1 µM,0.757
same,relative viability,[19]; first compound 0.01 µM,0.912
same,relative viability,[19]; first compound 0.03162 µM,0.979
same,relative viability,[19]; first compound 0.1 µM,1.21
same,relative viability,[19]; first compound 0.3162 µM,1.02
same,relative viability,[19]; first compound 1 µM,0.883
same,relative viability,[20]; first compound 0.01 µM,0.568
same,relative viability,[20]; first compound 0.03162 µM,0.45
same,relative viability,[20]; first compound 0.1 µM,0.58
same,relative viability,[20]; first compound 0.3162 µM,0.61
same,relative viability,[20]; first compound 1 µM,0.535
